Key:
[1] = target: T1, human orexin-1 receptor (Homo sapiens, UniProt O43613); test: Intracellular calcium (FLIPR) antagonist assay, CHO cells expressing human orexin-1 receptor, 3 nM orexin-A; assay type: cell-based; conditions: 1 uM compound, orexin-A 3 nM; for inhibition at 1 µM: CHO, read-out: OXIR % Inh. @ 1 uM
T1 construct: expressed in transfected cells; host or cells: CHO cells (G418 selection)
T1 sequence (O43613 1-425): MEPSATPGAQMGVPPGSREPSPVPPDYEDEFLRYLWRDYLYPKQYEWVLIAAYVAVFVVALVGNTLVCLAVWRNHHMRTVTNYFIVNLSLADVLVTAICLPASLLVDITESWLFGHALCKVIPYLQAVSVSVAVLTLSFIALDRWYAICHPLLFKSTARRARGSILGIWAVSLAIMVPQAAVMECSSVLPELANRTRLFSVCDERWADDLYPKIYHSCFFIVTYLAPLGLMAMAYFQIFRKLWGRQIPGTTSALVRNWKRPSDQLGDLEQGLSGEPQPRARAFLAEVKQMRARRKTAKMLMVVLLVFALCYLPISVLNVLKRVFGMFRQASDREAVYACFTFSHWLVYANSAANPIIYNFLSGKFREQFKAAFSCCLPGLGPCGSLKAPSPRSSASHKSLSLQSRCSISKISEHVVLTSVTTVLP
Protocol: (§1) Antagonistic activities on both orexin receptors (i.e., to identify Orexin Receptor Antagonists) have been measured for each example compound using the in vitro assays (intracellular calcium measurements) as described herein. Other assays may also be used to identify Orexin Receptor Antagonists as would be understood by those of ordinary skill in the art. Chinese hamster ovary (CHO) cells expressing the human orexin-1 receptor and the human orexin-2 receptor, respectively, are grown in culture medium (Ham F-12 with L-Glutamine) containing 300 μg/mL G418, 100 U/mL penicillin, 100 μg/mL streptomycin and 10% heat inactivated fetal calf serum (FCS). The cells are seeded at 20′000 cells/well into 384-well black clear bottom sterile plates (Greiner). The seeded plates are incubated overnight at 37° C. in 5% CO2. Human orexin-A as an agonist is prepared as 1 mM stock solution in MeOH: water (1:1), diluted in HBSS containing 0.1% bovine serum albumin (BSA), NaHC03: 0.375 g/L and 20 mM HEPES for use in the assay at a final concentration of 3 nM.
(§2) Antagonists were prepared as 10 mM stock solution in DMSO, then diluted in 384-well plates using DMSO followed by a transfer of the dilutions into in HBSS containing 0.1% bovine serum albumin (BSA), NaHC03: 0.375 g/L and 20 mM HEPES. On the day of the assay, 50 μL of staining buffer (HBSS containing 1% FCS, 20 mM HEPES, NaHC03: 0.375 g/L, 5 mM probenecid (Sigma) and 3 μM of the fluorescent calcium indicator fluro-4 AM (1 mM stock solution in DMSO, containing 10% pluronic) is added to each well. The 384-well cell-plates are incubated for 50 min at 37° C. in 5% C02 followed by equilibration at RT for 30 min before measurement. Within the Fluorescent Imaging Plate Reader (FLIPR Tetra, Molecular Devices), potential Orexin Receptor Antagonists were added to the plate in a volume of 10 μl/well, incubated for 120 min and finally 10 μL/well of agonist is added. Fluorescence was measured for each well at 1 second intervals, and the height of each fluorescence peak compared to the height of the fluorescence peak induced by 3 nM orexin-A with vehicle in place of antagonist. The IC50 value (the concentration of compound needed to inhibit 50% of the agonistic response) was determined and normalized using the obtained IC50 value of an on-plate reference compound. Optimized conditions were achieved by adjustment of pipetting speed and cell splitting regime. The calculated IC50 values fluctuate depending on the daily cellular assay performance, as is known to those skilled in the art. In the case where IC50 values have been determined several times for the same compound, the geometric mean has been given.

[2] = target: T2, human orexin-2 receptor (Homo sapiens, UniProt O43614); test: Intracellular calcium (FLIPR) antagonist assay, CHO cells expressing human orexin-2 receptor, 3 nM orexin-A; assay type: cell-based; conditions: 1 uM compound, orexin-A 3 nM; for inhibition at 1 µM: CHO, read-out: OX2R % Inh. @ 1uM
T2 construct: expressed in transfected cells; host or cells: CHO cells (G418 selection)
T2 sequence (O43614 1-444): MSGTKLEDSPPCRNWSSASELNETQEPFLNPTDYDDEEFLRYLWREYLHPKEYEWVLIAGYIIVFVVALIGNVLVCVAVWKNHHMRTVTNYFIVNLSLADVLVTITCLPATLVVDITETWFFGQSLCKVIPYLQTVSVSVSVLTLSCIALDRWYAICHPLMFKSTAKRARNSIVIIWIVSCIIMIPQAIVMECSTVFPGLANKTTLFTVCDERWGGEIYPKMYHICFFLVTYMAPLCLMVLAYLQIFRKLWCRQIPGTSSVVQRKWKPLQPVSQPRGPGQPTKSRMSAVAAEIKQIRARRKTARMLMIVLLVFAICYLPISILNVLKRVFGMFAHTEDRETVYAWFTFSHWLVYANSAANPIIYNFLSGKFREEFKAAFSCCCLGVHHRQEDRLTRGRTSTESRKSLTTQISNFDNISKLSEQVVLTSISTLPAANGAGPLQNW
Protocol: as §1, §2

Compound	inhibition at 1 µM [1]	inhibition at 1 µM [2]	OXIR % Inh. @ 1 uM [1]	OX2R % Inh. @ 1uM [2]
COc1ccc(N2CC[C@@H](C)N(C(=O)c3c(-c4ccccc4)nn4c3COCC4)CC2)nn1 [Example 11]	12.2%	21.5%	–	–
COc1ccc(N2CC[C@@H](C)N(C(=O)c3c(-c4ccccc4)nn4c3COCC4)CC2)nc1 [Example 12]	14.7%	25%	–	–
COc1ccc(N2CC[C@@H](C)N(C(=O)c3c(-c4ccccc4)nn4ccccc34)CC2)nn1 [Example 13]	45.1%	38.6%	–	–
COc1ccc(N2CC[C@@H](C)N(C(=O)c3c(-c4ccccc4)nn4ccccc34)CC2)nc1 [Example 14]	91.6%	57.6%	–	–
COc1ccc(N2CC[C@@H](C)N(C(=O)c3c(-c4ccccc4)nn4ccccc34)CC2)cn1 [Example 15]	38.7%	37.1%	–	–
COc1ccc(N2CC[C@@H](C)N(C(=O)c3c(-c4ccccc4)nn4c3COCC4)CC2)cn1 [Example 16]	-21.1%	3.3%	–	–
C[C@@H]1CCN(c2ccc(C(F)(F)F)cn2)CCN1C(=O)c1c(-c2ccccc2)nn2ccccc12 [Example 17]	96.3%	66.7%	–	–
C[C@@H]1CCN(c2ccc(C(F)(F)F)cn2)CCN1C(=O)c1c(-c2ccccc2)nn2c1COCC2 [Example 18]	82.5%	35.5%	–	–
C[C@@H]1CCN(c2ccc(F)cn2)CCN1C(=O)c1c(-c2ccccc2)nn2c1COCC2 [Example 25]	11.6%	7.7%	–	–
Cc1cc(C)nc(N2CC3CN(C(=O)c4c(-c5ccccc5)nc5ccc(F)cn45)CC3C2)n1 (centres unmarked) [Example 26]	1.61%	33.8%	–	–
Cc1cc(C)nc(N2CC3CN(C(=O)c4c(-c5ccc(F)cc5)nc5ccccn45)CC3C2)n1 (centres unmarked) [Example 27]	6.42%	14.2%	–	–
Cc1cc(C)nc(N2CC3CN(C(=O)c4c(-c5ccc(F)cc5)nn5ccccc45)CC3C2)n1 (centres unmarked) [Example 30]	28.3%	36.8%	–	–
Cc1cc(C)nc(N2CC3CN(C(=O)c4nc5ccccn5c4-c4ccc(F)cc4)CC3C2)n1 (centres unmarked) [Example 31]	8.04%	3.74%	–	–
Cc1cc(C)nc(N2CC3CN(C(=O)c4nc5ccccn5c4-c4ccccc4F)CC3C2)n1 (centres unmarked) [Example 32]	4.01%	12.1%	–	–
Cc1cc(C)nc(N2CC3CN(C(=O)c4nn5ccccc5c4-c4ccc(F)cc4)CC3C2)n1 (centres unmarked) [Example 33]	5%	17.6%	–	–
Cc1cc(C)nc(N2CC3CN(C(=O)c4nn5ccccc5c4-c4ccccc4F)CC3C2)n1 (centres unmarked) [Example 34]	2.36%	31.4%	–	–
O=C(c1c(-c2ccccc2)nc2ccc(F)cn12)N1CC2CN(c3ccc(C(F)(F)F)cn3)CC2C1 (centres unmarked) [Example 35]	59.1%	22.5%	–	–
O=C(c1c(-c2ccccc2)nc2cc(F)ccn12)N1CC2CN(c3ccc(C(F)(F)F)cn3)CC2C1 (centres unmarked) [Example 36]	35%	23.6%	–	–
Cc1cc(C)nc(N2CC3CN(C(=O)c4c(-c5ccccc5)nc5cc(C(F)(F)F)ccn45)CC3C2)n1 (centres unmarked) [Example 37]	5.33%	46.9%	–	–
Cc1cc(C)nc(N2CC3CN(C(=O)c4ccccc4-c4cnc5ccccn45)CC3C2)n1 (centres unmarked) [Example 38]	6.86%	3.32%	–	–
Cc1cc(C)nc(N2CC3CN(C(=O)c4c(-c5ccc(F)cc5)nn5c4COCC5)CC3C2)n1 (centres unmarked) [Example 39]	14.9%	–	–	29.13%
Cc1cc(C)nc(N2CC3CN(C(=O)c4c(-c5ccc(F)cc5)nn5c4COCC5)CC3C2)n1 (centres unmarked) [Example 40]	–	–	11.58%	7.18%
Cc1cc(C)nc(N2CC3CN(C(=O)c4c(-c5ccccc5)nn5c4COCC5)CC3C2)n1 (centres unmarked) [Example 41]	6%	11.5%	–	–

Results, then the compound that gave them:

inhibition at 1 µM [1]	inhibition at 1 µM [2]	OXIR % Inh. @ 1 uM [1]	OX2R % Inh. @ 1uM [2]	Compound
98.7%	94.9%	–	–	O=C(c1c(-c2ccccc2)nn2ccccc12)N1CCCN(c2nc3cc(Cl)ccc3o2)CC1 [Example 1]
64.2%	43.4%	–	–	O=C(c1c(-c2ccccc2)nn2c1COCC2)N1CCCN(c2nc3cc(Cl)ccc3o2)CC1 [Example 2]
94%	71.8%	–	–	O=C(c1c(-c2ccccc2)nc2ccccn12)N1CCCN(c2nc3cc(Cl)ccc3o2)CC1 [Example 3]
98.5%	94.5%	–	–	C[C@@H]1CCN(c2nc3cc(Cl)ccc3o2)CCN1C(=O)c1c(-c2ccccc2)nc2ccccn12 [Example 5]
62.5%	33.4%	–	–	C[C@@H]1CCN(c2nc3cc(Cl)ccc3o2)CCN1C(=O)c1c(-c2ccccc2)nc2n1CCCC2 [Example 6]
91%	54.5%	–	–	C[C@@H]1CCN(c2nc3cc(Cl)ccc3o2)CCN1C(=O)c1c(-c2ccccc2)nn2c1COCC2 [Example 7]
98%	82.7%	–	–	C[C@@H]1CCN(c2nc3cc(Cl)ccc3o2)CCN1C(=O)c1nn2ccccc2c1-c1ccccc1 [Example 8]
49.6%	12.2%	–	–	C[C@@H]1CCN(c2nc3cc(Cl)ccc3o2)CCN1C(=O)c1nc2n(c1-c1ccccc1)CCCC2 [Example 9]
85.9%	55.1%	–	–	C[C@@H]1CCN(c2nc3cc(Cl)ccc3o2)CCN1C(=O)c1c(-c2ccccc2)nn2c1CCCC2 [Example 10]
94.5%	48.2%	–	–	C[C@@H]1CCN(c2ccc(C(F)(F)F)cn2)CCN1C(=O)c1c(-c2ccccc2)nc2ccccn12 [Example 19]
62.1%	32.2%	–	–	COc1ccc(N2CC[C@@H](C)N(C(=O)c3c(-c4ccccc4)nc4ccccn34)CC2)nc1 [Example 20]
20.9%	23.7%	–	–	COc1ccc(N2CC[C@@H](C)N(C(=O)c3c(-c4ccccc4)nc4ccccn34)CC2)nn1 [Example 21]
15%	28.3%	–	–	COc1ccc(N2CC[C@@H](C)N(C(=O)c3c(-c4ccccc4)nc4ccccn34)CC2)cn1 [Example 22]
18.6%	32.7%	–	–	C[C@@H]1CCN(c2ccc(F)cn2)CCN1C(=O)c1c(-c2ccccc2)nc2ccccn12 [Example 23]
44.2%	46%	–	–	C[C@@H]1CCN(c2ccc(F)cn2)CCN1C(=O)c1c(-c2ccccc2)nn2ccccc12 [Example 24]
18.3%	36.6%	–	–	Cc1cc(C)nc(N2CC3CN(C(=O)c4c(-c5ccccc5F)nc5ccccn45)CC3C2)n1 (centres unmarked) [Example 28]
–	–	19.54%	34.14%	Cc1cc(C)nc(N2CC3CN(C(=O)c4c(-c5ccccc5F)nc5ccccn45)CC3C2)n1 (centres unmarked) [Example 29]

Reference: patent publication US20260256807A1, “SUBSTITUTED PYRAZOLES AND IMIDAZOLES AS OREXIN RECEPTOR ANTAGONISTS COMPOSITION, METHODS FOR TREATING NEUROLOGICAL AND PSYCHOLOGICAL DISORDERS” (HAGER BIOSCIENCES, LLC, priority 2022, published 2026)
